Laboratory results as given in patent US20220226338A1, “Methods of Treating Cancer Using CHK1 Inhibitors” (Sierra Oncology, Inc., priority 2019, published 2022).

Experiments:
[1] = test system: cryopreserved hepatocytes; assay: Stability in cryopreserved minipig hepatocytes; format: in vitro ADME; conditions: 10 μM, after 4 hours of incubation
Protocol: (§1) The formation of SRA737-related metabolites was determined in cryopreserved hepatocytes from human, mouse, rat, dog, minipig and monkey samples after incubation with SRA737 at a nominal concentration of 10 μM for up to 4 hours. […] In the human hepatocyte preparation, approximately 67% of the parent remained after 4 hours of incubation compared to 75% and 7% in the rat and minipig preparations, respectively. Eight human SRA737 metabolites were observed. All SRA737 metabolites formed by human hepatocytes were also formed by monkey hepatocytes. Six metabolites were present at equal or greater abundance in the monkey.

[2] = test system: cryopreserved hepatocytes; assay: Rank order of hepatocyte stability across species; format: in vitro ADME, human, mouse, rat, dog, minipig and monkey; conditions: 10 μM, up to 4 hours
Protocol: as §1

[3] = Parallel artificial membrane permeability assay (PAMPA); format: in vitro ADME
Protocol: The membrane permeability of SRA737 was assessed in the parallel artificial membrane permeability assay (PAMPA) and Caco-2 assays. Permeability in the PAMPA assay was classified as low.

Single dose PK, monkey = format: in vivo
Source text: Several studies have been conducted to evaluate the PK properties of SRA737, such as the absorption (in vitro permeability assays and in vivo PK following IV and oral administration), distribution (in vivo tissue distribution and in vitro plasma protein binding) and metabolism (in vitro hepatocyte and CYP inhibition and induction studies) of SRA737.
(§2) The PK of SRA737 have been determined in the mouse, rat, dog and monkey following oral and IV administration (Table 3). […] An acceptable terminal elimination t1/2 was also observed in each species. […] The plasma protein binding of SRA737 at 1 and 10 μM was examined in mouse, minipig, monkey and human plasma using ultracentrifugation and in dog plasma (10 μM) using rapid equilibrium dialysis.

[4] = Excretion in urine and feces, mice; format: in vivo; conditions: 24-hour collection
Protocol: The excretion of SRA737 has been studied in mice and rats administered SRA737 at either 5 mg/kg IV or 10 mg/kg orally. Urine and feces were collected for a 24-hour period after dosing. In mice, renal excretion of intact SRA737 was consistently low (less than 10% of dose) after both oral and IV administration. Following IV administration of SRA737, less than 8% of the dose was recovered as intact drug in the feces while after oral administration this figure was less than 3%. Excretion of intact SRA737 was lower in the rat than in the mouse with <1% of dose excreted renally over 24 hours and less than 1.5% of dose excreted into the feces over 24 hours.

plasma protein = assay: Plasma protein binding, ultracentrifugation, human plasma; format: in vitro ADME
Protocol: as §2

[5] = Three-cycle combination toxicity study with gemcitabine and cisplatin; format: in vivo, mouse; conditions: mice; SRA737 with IV gemcitabine and cisplatin, intermittent schedule over 18 days; high dose triplet group
Source text: Clinical combination of SRA737 and gemcitabine in some cases therefore elicited exacerbated hematological and GI toxicities.

With `N#Cc1cnc(Nc2cc(NCC3CNCCO3)c(C(F)(F)F)cn2)cn1` (stereo not shown) [SRA737, 5-[[4-[[morpholin-2-yl]methylamino]-5-(trifluoromethyl)-2-pyridyl]amino]pyrazine-2-carbonitrile] the parent remaining [1] was 7%, the “rank order of stability from most stable to least stable” value [2] was “rat≈mouse>monkey˜human>>dog>>minipig” and the “permeability in the PAMPA assay” value [3] was “low”. For the same molecule, the Foral (Single dose PK, monkey; Monkey oral 2 mg/kg single dose) was 90%, the Foral (Single dose PK, monkey; Monkey oral 10 mg/kg single dose) was 104% and the “renal excretion of intact SRA737” value ([4]; 5 mg/kg IV or 10 mg/kg oral) was “less than 10 % of dose”. The “intact drug recovered in the feces” value ([4]; IV administration) was “less than 8 % of dose”, the “intact drug recovered in the feces” value ([4]; oral administration) was “less than 3 % of dose” and the “Percentage Bound” value (plasma protein; 1 μM) was 87.7%. The “Percentage Free” value (plasma protein; 1 μM) was 12.4%, the “Percentage Bound” value (plasma protein; 10 μM) was 87.2% and the “Percentage Free” value (plasma protein; 10 μM) was 12.8%. For the same molecule, the “additional finding in triple combination study” value [5] was “reversible intestinal epithelial degeneration”.
